The record followed here is patent US20250313548A1 (Actio Biosciences, Inc., priority 2023, published 2025).

What is called IC50 is the concentration needed to halve the response being measured. The low end stands for greater potency, the high end for weaker potency.

Chain of human, KCNT1 (Q5JUK3 whole entry): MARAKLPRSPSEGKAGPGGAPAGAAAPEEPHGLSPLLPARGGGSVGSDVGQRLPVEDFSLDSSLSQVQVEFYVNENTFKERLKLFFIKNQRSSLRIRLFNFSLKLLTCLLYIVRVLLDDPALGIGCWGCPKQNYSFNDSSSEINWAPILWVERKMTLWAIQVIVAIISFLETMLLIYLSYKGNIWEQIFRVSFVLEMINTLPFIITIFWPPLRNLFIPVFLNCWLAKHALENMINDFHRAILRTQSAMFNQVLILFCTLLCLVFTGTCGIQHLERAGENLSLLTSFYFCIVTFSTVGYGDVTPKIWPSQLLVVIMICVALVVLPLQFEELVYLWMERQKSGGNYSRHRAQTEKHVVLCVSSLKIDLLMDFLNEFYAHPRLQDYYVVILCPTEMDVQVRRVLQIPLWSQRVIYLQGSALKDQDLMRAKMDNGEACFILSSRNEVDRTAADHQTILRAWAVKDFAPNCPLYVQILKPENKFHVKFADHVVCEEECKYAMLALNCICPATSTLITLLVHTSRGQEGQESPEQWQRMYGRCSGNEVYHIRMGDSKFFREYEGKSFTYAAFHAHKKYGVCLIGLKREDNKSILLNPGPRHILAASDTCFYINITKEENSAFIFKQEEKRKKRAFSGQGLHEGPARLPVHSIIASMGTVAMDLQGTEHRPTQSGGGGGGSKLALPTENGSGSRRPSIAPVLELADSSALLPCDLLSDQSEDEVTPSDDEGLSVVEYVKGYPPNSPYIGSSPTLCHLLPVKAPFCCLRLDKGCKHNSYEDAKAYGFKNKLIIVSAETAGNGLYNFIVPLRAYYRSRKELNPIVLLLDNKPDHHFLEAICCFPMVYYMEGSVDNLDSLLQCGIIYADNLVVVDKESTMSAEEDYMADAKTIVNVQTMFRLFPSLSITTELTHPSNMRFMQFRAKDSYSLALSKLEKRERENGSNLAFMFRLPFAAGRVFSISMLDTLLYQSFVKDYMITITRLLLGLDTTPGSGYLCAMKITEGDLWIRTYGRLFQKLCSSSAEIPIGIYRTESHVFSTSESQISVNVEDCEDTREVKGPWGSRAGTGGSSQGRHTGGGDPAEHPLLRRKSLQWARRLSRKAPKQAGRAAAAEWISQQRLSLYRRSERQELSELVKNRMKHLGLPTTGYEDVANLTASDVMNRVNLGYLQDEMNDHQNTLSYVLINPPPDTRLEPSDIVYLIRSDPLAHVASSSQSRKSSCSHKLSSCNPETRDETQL

The target in this experiment is human, KCNT1 (Homo sapiens (Human), UniProt Q5JUK3). The experiment is described as follows: FLIPR Tl/K Flux Assay. The conditions noted are these: HEK293 cells stably expressing human KCNT1; Tl+ flux stimulated with EC80 of agonist Loxapine. Format: cell-based. In outline:
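Inhibition values come from a Hill-equation fit of % inhibition versus log concentration, using normalized fluorescence (Fmax/Fmin) over a 160 s read. The read followed stimulation with Tl+ plus EC80 agonist loxapine after 30 min compound pre-incubation at 25 °C. Cells were KCNT1-expressing HEK293, dye-loaded 1 h in pH 7.4 HEPES/HBSS with 5 mM probenecid.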
`O=C(N[C@H]1CCCn2nc(-c3cc(C(F)(F)F)ncc3Cl)cc21)c1ccnc(OC(F)(F)F)c1` [Compound I-179a, (S)-N-(2-(5-Chloro-2-(trifluoromethyl)pyridin-4-yl)-4,5,6,7-tetrahydropyrazolo[1,5-a]pyridin-4-yl)-2-(trifluoromethoxy)isonicotinamid] came in with an IC50 below 250 nM.

On to `Cn1nc(C(F)(F)F)cc1C(=O)N[C@H]1CCCc2nc(-c3ccnc(C4CC4)c3)oc21` [Compound I-180a, (S)-N-(2-(2-Cyclopropylpyridin-4-yl)-4,5,6,7-tetrahydrobenzo[d]oxazol-7-yl)-1-methyl-3-(trifluoromethyl)-1H-pyrazole-5-carboxamide], for which the IC50 was below 250 nM.

In turn, `Cc1cnc(C(F)(F)F)cc1-c1cc2n(n1)CCC[C@@H]2NC(=O)c1ccnc(OC(F)(F)F)c1` [Compound I-181a, (S)-N-(2-(5-Methyl-2-(trifluoromethyl)pyridin-4-yl)-4,5,6,7-tetrahydropyrazolo[1,5-a]pyridin-4-yl)-2-(trifluoromethoxy)isonicotinamide] showed an IC50 below 250 nM.

`O=C(N[C@H]1CCCn2nc(-c3cc(C(F)(F)F)ncc3F)nc21)c1cncc(C(F)(F)F)n1` [Compound I-182a, (S)-N-(2-(5-Fluoro-2-(trifluoromethyl)pyridin-4-yl)-5,6,7,8-tetrahydro-[1,2,4]triazolo[1,5-a]pyridin-8-yl)-6-(trifluoromethyl)pyrazine-2-carboxamide] registered an IC50 of 500 to 1000 nM.

As to `COc1cc(-c2cc3n(n2)CCCC[C@@H]3NC(=O)c2cc(F)cc(C#N)c2)c(F)cn1` [Compound I-183a, (S)-3-Cyano-5-fluoro-N-(2-(5-fluoro-2-methoxypyridin-4-yl)-5,6,7,8-tetrahydro-4H-pyrazolo[1,5-a]azepin-4-yl)benzamide], the IC50 was below 250 nM.

With `O=C(N[C@H]1CCCc2nc(-c3ccnc(C(F)(F)F)c3)oc21)c1cncc(C(F)(F)F)n1` [Compound I-184a, (S)-6-(Trifluoromethyl)-N-(2-(2-(trifluoromethyl)pyridin-4-yl)-4,5,6,7-tetrahydrobenzo[d]oxazol-7-yl)pyrazine-2-carboxamide], the IC50 was below 250 nM.

`O=C(N[C@H]1CCCc2nc(-c3ccnc(C(F)(F)F)c3)oc21)c1cc(Cl)cc(Cl)c1` [Compound I-185a, (S)-3,5-Dichloro-N-(2-(2-(trifluoromethyl)pyridin-4-yl)-4,5,6,7-tetrahydrobenzo[d]oxazol-7-yl)benzamide] showed an IC50 below 250 nM.

Turning to `O=C(N[C@H]1CCCc2nc(-c3ccnc(C(F)(F)F)c3)oc21)c1ccnc(OC(F)(F)F)c1` [Compound I-186a, (S)-2-(Trifluoromethoxy)-N-(2-(2-(trifluoromethyl)pyridin-4-yl)-4,5,6,7-tetrahydrobenzo[d]oxazol-7-yl)isonicotinamide], the IC50 is below 250 nM.

`O=C(N[C@H]1CCCc2nc(-c3ccnc(C(F)(F)F)c3)oc21)c1cccc(OC(F)(F)F)c1` [Compound I-187a, (S)-3-(Trifluoromethoxy)-N-(2-(2-(trifluoromethyl)pyridin-4-yl)-4,5,6,7-tetrahydrobenzo[d]oxazol-7-yl)benzamide] showed an IC50 below 250 nM.

The compound `O=C(N[C@H]1CCCc2nc(-c3ccnc(C(F)(F)F)c3)oc21)c1cccc(C(F)(F)F)c1` [Compound I-188a, (S)-3-(Trifluoromethyl)-N-(2-(2-(trifluoromethyl)pyridin-4-yl)-4,5,6,7-tetrahydrobenzo[d]oxazol-7-yl)benzamide] gave a half-inhibitory concentration (IC50) below 250 nM.

The compound `Cn1nc(C(F)(F)F)cc1C(=O)N[C@H]1CCCc2oc(-c3cc(C(F)(F)F)ncc3Cl)nc21` [Compound I-189a] had an IC50 below 250 nM.

Regarding `Cn1nc(C(F)(F)F)cc1C(=O)N[C@H]1CCc2nn(-c3cc(C4CC4)ncc3F)cc21` [Compound I-190a, (S)-N-(2-(2-Cyclopropyl-5-fluoropyridin-4-yl)-2,4,5,6-tetrahydrocyclopenta[c]pyrazol-4-yl)-1-methyl-3-(trifluoromethyl)-1H-pyrazole-5-carboxamide], the IC50 was below 250 nM.

For the compound `Cn1nc(C(F)(F)F)nc1C(=O)N[C@H]1CCCc2oc(-c3cc(C4CC4)ncc3F)nc21` [Compound I-191a, (S)—N-(2-(2-Cyclopropyl-5-fluoropyridin-4-yl)-4,5,6,7-tetrahydrobenzo[d]oxazol-4-yl)-1-methyl-3-(trifluoromethyl)-1H-1,2,4-triazole-5-carboxamide], the half-inhibitory concentration (IC50) is below 250 nM.

Consider `Cc1nc(C(F)(F)F)oc1C(=O)N[C@H]1CCc2cnc(-c3ccnc(C(F)(F)F)c3)cc21` [Compound I-192a, (S)-4-Methyl-2-(trifluoromethyl)-N-(3-(2-(trifluoromethyl)pyridin-4-yl)-6,7-dihydro-5H-cyclopenta[c]pyridin-5-yl)oxazole-5-carboxamide], for which the IC50 lay in the range of 250 to 500 nM.

Turning to `O=C(N[C@H]1CCCn2nc(-c3ccnc(C4CC4)c3)cc21)c1ccnc(OC(F)(F)F)c1` [Compound I-193a, (S)-N-(2-(2-Cyclopropylpyridin-4-yl)-4,5,6,7-tetrahydropyrazolo[1,5-a]pyridin-4-yl)-2-(trifluoromethoxy)isonicotinamide], the half-maximal inhibitory concentration (IC50) is below 250 nM.

Regarding `COc1cc(C(=O)N[C@H]2CCCCn3nc(-c4cc(C(F)(F)F)ncc4F)cc32)ccn1` [Compound I-194a, (S)-N-(2-(5-Fluoro-2-(trifluoromethyl)pyridin-4-yl)-5,6,7,8-tetrahydro-4H-pyrazolo[1,5-a]azepin-4-yl)-2-methoxyisonicotinamide], the IC50 is below 250 nM.

`O=C(N[C@H]1CCCn2nc(-c3cc(C(F)(F)F)ncc3F)cc21)c1cnc2ccccc2n1` [Compound I-195a, (S)-N-(2-(5-Fluoro-2-(trifluoromethyl)pyridin-4-yl)-4,5,6,7-tetrahydropyrazolo[1,5-a]pyridin-4-yl)quinoxaline-2-carboxamide] yielded an IC50 below 250 nM.

Compound `COc1cc(C(=O)N[C@H]2CCc3cnc(-c4ccnc(C(F)(F)F)c4)cc32)ccn1` [Compound I-196a, (S)-2-Methoxy-N-(3-(2-(trifluoromethyl)pyridin-4-yl)-6,7-dihydro-5H-cyclopenta[c]pyridin-5-yl)isonicotinamide] registered an IC50 of 500 to 1000 nM.

`O=C(N[C@H]1CCc2cnc(-c3ccnc(C(F)(F)F)c3)cc21)c1cncc(C(F)(F)F)n1` [Compound I-197a, (S)-6-(trifluoromethyl)-N-(3-(2-(trifluoromethyl)pyridin-4-yl)-6,7-dihydro-5H-cyclopenta[c]pyridin-5-yl)pyrazine-2-carboxamide] had a half-maximal inhibitory concentration (IC50) above 1000 nM.

As to `O=C(N[C@H]1CCn2nc(-c3ccnc(C(F)(F)F)c3)cc21)c1ccnc(OC(F)(F)F)c1` [Compound I-198a, (S)-2-(Trifluoromethoxy)-N-(2-(2-(trifluoromethyl)pyridin-4-yl)-5,6-dihydro-4H-pyrrolo[1,2-b]pyrazol-4-yl)isonicotinamide], the IC50 is below 250 nM.

`O=C(N[C@H]1CCCn2nc(-c3cc(C(F)(F)F)ncc3F)cc21)c1ccnc(OC(F)(F)F)c1` [Compound I-199a, (S)-N-(2-(5-Fluoro-2-(trifluoromethyl)pyridin-4-yl)-4,5,6,7-tetrahydropyrazolo[1,5-a]pyridin-4-yl)-2-(trifluoromethoxy)isonicotinamide] gave a half-maximal inhibitory concentration (IC50) below 250 nM.
